Source: patent US20250179017A1 (GUANGDONG NEWOPP BIOPHARMACEUTICALS CO., LTD., priority 2022, published 2025)

Columns and labels:
human EP2 (PTGER2) = target: T1, human EP2 (PTGER2) (Homo sapiens, UniProt P43116); assay: EP2 antagonist assay (HEK-293 CNG membrane potential cAMP assay / 293T SEAP reporter assay, PGE2-stimulated); type: cell-based; conditions: EP2 antagonist activity; concentration for 50% inhibition of signal compared to DMSO
T1 construct: Cayman Chemical (Human EP2 Reporter Assay Kit)
T1 sequence (P43116 whole entry): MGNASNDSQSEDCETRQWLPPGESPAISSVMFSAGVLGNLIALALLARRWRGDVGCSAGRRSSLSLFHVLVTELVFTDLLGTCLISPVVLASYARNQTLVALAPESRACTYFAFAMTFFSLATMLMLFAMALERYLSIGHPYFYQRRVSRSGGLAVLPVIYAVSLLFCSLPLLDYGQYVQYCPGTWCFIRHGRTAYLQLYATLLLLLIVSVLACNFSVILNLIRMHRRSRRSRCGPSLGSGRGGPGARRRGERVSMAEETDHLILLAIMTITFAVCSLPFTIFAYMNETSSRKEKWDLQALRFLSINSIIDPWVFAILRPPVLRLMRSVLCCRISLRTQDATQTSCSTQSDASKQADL
Summary of the method: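 HEK-293 CNG cells expressing human EP2: compound preincubated 15 min at RT, then PGE2 at 5 nM final, 30 min; membrane-potential dye fluorescence (ex 530, em 590 nm), background-subtracted, gave IC50. Alternatively, 293T cells reverse-transfected with EP2 and CRE-SEAP, compound plus 13 nM PGE2 for 6-8 h, SEAP luminescence.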

human EP4 (EP4R) = target: T2, human EP4 (EP4R) (Homo sapiens, UniProt P35408); assay: EP4 antagonist assay (HEK-293 CNG membrane potential cAMP assay / 293T SEAP reporter assay, PGE2-stimulated); type: cell-based; conditions: EP4 antagonist activity; concentration for inhibition of signal compared to DMSO
T2 construct: Cayman Chemical (Human EP4 Reporter Assay Kit)
T2 sequence (P35408 whole entry): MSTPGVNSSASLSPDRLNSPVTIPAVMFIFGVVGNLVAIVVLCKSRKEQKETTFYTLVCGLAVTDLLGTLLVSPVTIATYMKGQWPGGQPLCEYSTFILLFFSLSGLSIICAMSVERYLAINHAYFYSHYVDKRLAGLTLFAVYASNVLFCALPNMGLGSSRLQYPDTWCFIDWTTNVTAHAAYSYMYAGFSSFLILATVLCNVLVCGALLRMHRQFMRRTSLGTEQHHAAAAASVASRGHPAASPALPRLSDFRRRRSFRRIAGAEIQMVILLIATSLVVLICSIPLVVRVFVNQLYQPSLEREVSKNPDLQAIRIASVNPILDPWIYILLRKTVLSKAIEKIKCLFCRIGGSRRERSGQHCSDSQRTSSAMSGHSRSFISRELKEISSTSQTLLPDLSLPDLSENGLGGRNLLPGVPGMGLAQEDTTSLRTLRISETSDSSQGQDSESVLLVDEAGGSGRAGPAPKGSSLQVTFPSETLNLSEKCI
Source text: 1. The HEK-293 CNG (Cyclic Nucleotide Gated) cell line expressing a modified CNG channel that leads to cell membrane depolarization in response to elevated intracellular cAMP levels, which can be measured using a fluorescent membrane potential dye, was engineered to express human EP2 (PTGER2) or EP4 (EP4R). The resulting cell line ACTOne™ PTGER2 or ACTOne™ EP4R as well as the fluorescent membrane potential dye were purchased from eEnzyme (Gaithersburg, MD, US) and used in this assay. Briefly, cells were plated at 1.2×10^4 cells/well in 20 μL DMEM supplemented with 2% Fetal Bovine Serum (FBS, VWR International), 1x Penicillin/Streptomycin (GenClone), 0.2 μg/mL puromycin (InvivoGen) and 50 μg/mL G418 (InvivoGen) on a 384 well plate (Greiner). The next day, cells were dye-loaded with 20 μL/well of 1x Dye-loading solution (eENZYME) following the manufacturer's instruction. After 2 hours of incubation at room temperature (RT) in the dark, a pre-read was made to obtain the background signals using CLARIOstar plate reader (BMG LABTECH, Germany) with the following filter settings: excitation=530/20 nm, emission=590/20 nm. Next, a serial dilution of compound (plus a DMSO control) were added to the plate (5 μL/well) and the reaction was incubated at RT for 15 min before adding 5 μL of PGE2 to every well for a final concentration of 5 nM. All wells were duplicated. The plate was then further incubated at RT for 30 min prior to a final read with the same machine settings. Background-subtracted signals were used to calculate IC50 values.
2. Human EP2 and EP4 Reporter Assay Kits were purchased from Cayman Chemical (Ann Arbor, MI, USA). The assay was performed following the provided User Manual. Briefly, a reverse transfection was performed by seeding 6.0×10^4 of 293T cells (ATCC) to each well of the provided Strip Plate coated with a proprietary transfection complex containing DNA constructs for expressing human EP2 or EP4 and a cAMP response element regulated secreted alkaline phosphatase (SEAP) reporter, in 200 μL DMEM supplemented with 2% FBS and incubated for 20-24 hours at 37° C. with 5% CO2. After the incubation, the culture medium was carefully removed, and the cells were replenished with 150 μL pre-warmed serum-free medium. PGE2 and test compounds were prepared together at 4x the desired final concentration, and 50 μL was added to each assigned well with the final concentration of 13 nM and 2 nM PGE2 for EP2 and EP4 assay, respectively. After 6-8 hours of incubation, 10 μL media from each well was transferred to corresponding well of a new plate, which was then sealed and incubated at 65° C. for 30 min. The plate was then cooled down to RT and 50 μL SEAP substrate was added to each well. Luminescence signal was measured using a CLARIOstar plate reader.
The IC50 value was determined as the concentration for […] inhibition of signal compared to DMSO (A: IC50≤100 nM; B: IC50 between 100 nM and 1,000 nM; C: IC50≥1,000 nM).

| SMILES | IC50 (human EP2 (PTGER2)) [nM] | IC50 (human EP4 (EP4R)) [nM] |
| --- | --- | --- |
| O=C(O)c1ccc(CNC(=O)c2cc(-c3ccccc3)cc3cnn(Cc4ccc(C(F)(F)F)cc4)c23)cc1 [Example 97, 4-((5-phenyl-1-(4-(trifluoromethyl)benzyl)-1H-indazole-7-carboxamido)methyl)benzoic acid] | < 100 | ≤ 100 |
| C[C@H](NC(=O)c1cc(-c2ccccc2)cc2cnn(Cc3ccc(C(F)(F)F)cc3)c12)c1ccc(C(=O)O)cc1 [Example 100, (S)-4-(1-(5-phenyl-1-(4-(trifluoromethyl)benzyl)-1H-indazole-7-carboxamido)ethyl)benzoic acid] | < 100 | ≤ 100 |
| C[C@H](NC(=O)c1cc(-c2cc(F)cc(F)c2)cc2cnn(Cc3ccc(C(F)(F)F)cc3)c12)c1ccc(C(=O)O)cc1 [Example 101, (S)-4-(1-(5-(3,5-difluorophenyl)-1-(4-(trifluoromethyl)benzyl)-1H-indazole-7-carboxamido)ethyl)benzoic acid] | < 100 | ≤ 100 |
| O=C(O)c1ccc(CNC(=O)c2cc(-c3cc(F)cc(F)c3)cc3ccn(Cc4cccc(Cl)c4)c23)cc1 [Example 106, 4-((1-(3-chlorobenzyl)-5-(3,5-difluorophenyl)-1H-indole-7-carboxamido)methyl)benzoic acid] | < 100 | ≤ 100 |
| O=C(O)c1ccc(CNC(=O)c2cc(-c3ccc(F)cc3)cc3ccn(Cc4cccc(Cl)c4)c23)cc1 [Example 107, 4-((1-(3-chlorobenzyl)-5-(4-fluorophenyl)-1H-indole-7-carboxamido)methyl)benzoic acid] | < 100 | ≤ 100 |
| N#Cc1cccc(-c2cc(C(=O)NCc3ccc(C(=O)O)cc3)c3c(Sc4ccc(C(F)(F)F)cc4)c[nH]c3c2)c1 [Example 117, 4-((6-(3-cyanophenyl)-3-((4-(trifluoromethyl)phenyl)thio)-1H-indole-4-carboxamido)methyl)benzoic acid] | < 100 | ≤ 100 |
| O=C(O)c1ccc(CNC(=O)c2cc(-c3ccc(F)cc3)cc3ccn(Cc4cccc(C(F)(F)F)c4)c23)cc1 [Example 124, 4-((5-(4-fluorophenyl)-1-(3-(trifluoromethyl)benzyl)-1H-indole-7-carboxamido)methyl)benzoic acid] | < 100 | ≤ 100 |
| C[C@H](NC(=O)c1cc(-c2ccccc2)cc2ccn(Cc3cccc(C(F)(F)F)c3)c12)c1ccc(C(=O)O)cc1 [Example 129, (S)-4-(1-(5-phenyl-1-(3-(trifluoromethyl)benzyl)-1H-indole-7-carboxamido)ethyl)benzoic acid] | < 100 | ≤ 100 |
| C[C@H](NC(=O)c1cc(-c2ccc(F)cc2)cc2cnn(Cc3cccc(C(F)(F)F)c3)c12)c1ccc(C(=O)O)cc1 [Example 134, (S)-4-(1-(5-(4-fluorophenyl)-1-(3-(trifluoromethyl)benzyl)-1H-indazole-7-carboxamido)ethyl)benzoic acid] | < 100 | ≤ 100 |
| C[C@H](NC(=O)c1cc(-c2ccccc2)cc2cnn(Cc3cccc(C(F)(F)F)c3)c12)c1ccc(C(=O)O)cc1 [Example 135, (S)-4-(1-(5-phenyl-1-(3-(trifluoromethyl)benzyl)-1H-indazole-7-carboxamido)ethyl)benzoic acid] | < 100 | ≤ 100 |
| C[C@H](NC(=O)c1cc(-c2cc(F)cc(F)c2)cc2cnn(Cc3cccc(C(F)(F)F)c3)c12)c1ccc(C(=O)O)cc1 [Example 136, (S)-4-(1-(5-(3,5-difluorophenyl)-1-(3-(trifluoromethyl)benzyl)-1H-indazole-7-carboxamido)ethyl)benzoic acid] | < 100 | ≤ 100 |
| O=C(O)c1ccc(CNC(=O)c2cc(-c3ccccc3)cc3cnn(Cc4cccc(C(F)(F)F)c4)c23)cc1 [Example 137, 4-((5-phenyl-1-(3-(trifluoromethyl)benzyl)-1H-indazole-7-carboxamido)methyl)benzoic acid] | < 100 | ≤ 100 |
| O=C(O)c1ccc(CNC(=O)c2cc(-c3ccccc3)cc3ccn(Cc4ccc5ccccc5n4)c23)cc1 [Example 141, 4-((5-phenyl-1-(quinolin-2-ylmethyl)-1H-indole-7-carboxamido)methyl)benzoic acid] | < 100 | ≤ 100 |
| O=C(O)c1ccc(CNC(=O)c2cc(-c3ccccc3)cc3ccn(Cc4ccc(-c5ccccc5)cc4)c23)cc1 [Example 147, 4-((1-([1,1′-biphenyl]-4-ylmethyl)-5-phenyl-1H-indole-7-carboxamido)methyl)benzoic acid] | < 100 | ≤ 100 |
| O=C(O)c1ccc(CNC(=O)c2cc(-c3cc(F)cc(F)c3)cc3ccn(Cc4ccc(-c5ccccc5)cc4)c23)cc1 [Example 149, 4-((1-([1,1′-biphenyl]-4-ylmethyl)-5-(3,5-difluorophenyl)-1H-indole-7-carboxamido)methyl)benzoic acid] | < 100 | ≤ 100 |
| C[C@H](NC(=O)c1cc(-c2ccccc2)cc2ccn(Cc3ccc(-c4ccccc4)cc3)c12)c1ccc(C(=O)O)cc1 [Example 150, (S)-4-(1-(1-([1,1′-biphenyl]-4-ylmethyl)-5-phenyl-1H-indole-7-carboxamido)ethyl)benzoic acid] | < 100 | ≤ 100 |
| C[C@H](NC(=O)c1cc(-c2ccc(F)cc2)cc2ccn(Cc3ccc(-c4ccccc4)cc3)c12)c1ccc(C(=O)O)cc1 [Example 151, (S)-4-(1-(1-([1,1′-biphenyl]-4-ylmethyl)-5-(4-fluorophenyl)-1H-indole-7-carboxamido)ethyl)benzoic acid] | < 100 | ≤ 100 |
| C[C@H](NC(=O)c1cc(-c2cc(F)cc(F)c2)cc2ccn(Cc3ccc(-c4ccccc4)cc3)c12)c1ccc(C(=O)O)cc1 [Example 152, (S)-4-(1-(1-([1,1′-biphenyl]-4-ylmethyl)-5-(3,5-difluorophenyl)-1H-indole-7-carboxamido)ethyl)benzoic acid] | < 100 | ≤ 100 |
| O=C(O)c1ccc(CNC(=O)c2ccc(Nc3ccccc3)c3ccn(Cc4ccc(-c5ccccc5)cc4)c23)cc1 [Example 154, 4-((1-([1,1′-biphenyl]-4-ylmethyl)-4-(phenylamino)-1H-indole-7-carboxamido)methyl) benzoic acid] | < 100 | ≤ 100 |
| O=C(O)c1ccc(CNC(=O)c2ccc(Nc3ccccc3)c3ccn(Cc4ccc5ccccc5c4)c23)cc1 [Example 156, 4-((1-(naphthalen-2-ylmethyl)-4-(phenylamino)-1H-indole-7-carboxamido)methyl)benzoic acid] | < 100 | ≤ 100 |
| O=C(O)c1ccc(CNC(=O)c2cc(-c3ccccc3)cc3cnn(Cc4ccc5ccccc5c4)c23)cc1 [Example 165, 4-((1-(naphthalen-2-ylmethyl)-5-phenyl-1H-indazole-7-carboxamido)methyl)benzoic acid] | < 100 | ≤ 100 |
| O=C(O)c1ccc(CNC(=O)c2cc(-c3ccc(F)cc3)cc3cnn(Cc4ccc5ccccc5c4)c23)cc1 [Example 166, 4-((5-(4-fluorophenyl)-1-(naphthalen-2-ylmethyl)-1H-indazole-7-carboxamido)methyl)benzoic acid] | < 100 | ≤ 100 |
| C[C@H](NC(=O)c1cc(-c2ccc(F)cc2)cc2cnn(Cc3ccc4ccccc4c3)c12)c1ccc(C(=O)O)cc1 [Example 168, (S)-4-(1-(5-(4-fluorophenyl)-1-(naphthalen-2-ylmethyl)-1H-indazole-7-carboxamido)ethyl)benzoic acid] | < 100 | ≤ 100 |
